Data from patent US20160083424A1, “COMPOSITIONS AND METHODS FOR TARGETING ANTIGEN-PRESENTING CELLS” (OSLO UNIVERSITETSSYKEHUS HF, priority 2013, published 2016).

Columns and labels:
[1] = system: PBMCs; assay: Autologous stimulation of PBMCs with pp65 targeted peptides, [3H] thymidine incorporation; assay type: cell-based, human; settings: whole PBMCs, peptides at 4° C., 5 days at 37° C.
Protocol: (§1) PBMC from HLA-A2/CMV+ donors were thawed, washed and then incubated with the peptides (5 μg/ml) for 60 min at 4° C. Subsequently, the cells were washed twice and then plated at 2×10^5 cells per well in 96-well tissue culture plate. Cells were cultured for 5 days and subsequently they were pulsed with [^3H] thymidine and harvested 16 h later. In some experiments, the cells were cultured for 12 days and then stained with dextramers specific for pp65 NLVPMVATV (SEQ ID NO:19) epitope. Monocyte-depleted PBMCs were also used. To analyze primary immune responses against pp65 protein, PBMCs from HLA-A2+/CMV-negative donors were used. Autologous DCs were incubated with either NW-pp65 or GA-pp65 peptide (5 μg/ml) at 4° C. for 1 h, followed by three washes to remove unbound peptides. Subsequently, the cells were incubated with CD45RO-depleted PBMC (responder cells) and co-cultured for 10 days at ratio 1/10 (DC to responder cells) in X-vivo 15 medium supplemented with 10 ng/ml human IL-7 for 10 days. After 2 rounds of stimulation (8 days each) with autologous DC loaded with peptides, the cells were stained with dextramers specific for pp65 NLVPMVATV (SEQ ID NO:19) epitope. To test spontaneous uptake of peptides by DCs, PBMCs from HLA-A2+/CMV positive donors were incubated at 37° C. with various concentrations of untargeted or targeted pp65 peptide for 90 min. […]

[2] = system: CD8 T cells specific for the NLVPMVATV epitope; assay: Dextramer staining of CD8 T cells after stimulation with peptide-exposed DCs; assay type: cell-based, human; settings: DC-stimulated CD8 T cells, CMV positive donors, equal molar concentrations, n=3
Protocol: Peptides at a concentration of 5 μg/ml were incubated with semi mDCs from HLA-A2/CMV-positive donors for 60 min at 4° C. Subsequently, they were washed to remove unbound peptides. Autologous stimulation was done in 96-well tissue culture plates in X-vivo 15 medium. Briefly, DCs were mixed with 10^5 autologous CD4 or CD8 T cells at a DC/lymphocytes ratios of 1/5 and 1/10 in a final volume of 250 μl. Cells were incubated for 5 days and then they were pulsed with [^3H] thymidine and harvested 16 h later. [^3H] thymidine incorporation was measured in a β-scintillation counter. In some experiments, the cells were cultured for 8 days and then stained with dextramers specific for pp65 NLVPMVATV (SEQ ID NO:19) epitope.
(§2) Dextramers with CMV (NLVPMVATV) (SEQ ID NO:19) and HIV (ILKEPVHGV) (SEQ ID NO:22) HLA-A2 specific antigens were obtained from Immudex (Copenhagen, Denmark). Antibodies against human CD8, CD19 and CD56 were obtained from eBioscience (San Diego, Calif., USA). […] Cells were washed and resuspended in SB containing 1% paraformaldehyd and analyzed on a BD SLR II flow cytometer. The data were analyzed using FCS Express (De Novo Software, Los Angeles, Calif., USA).

[3] = system: iDCs; assay: Peptide binding by flow cytometry; parameters: species or system human; settings: iDCs
Protocol: The cells were seeded onto 24-well plate (3×10^5/well/0.5 ml) in X-vivo 15 medium and incubated overnight at 37° C. Subsequently, they were incubated with 6IAF-conjugated peptides (5 μg/ml) for 30 min at 37° C., gently scraped, washed 3 times and then analyzed by flow cytometry. Binding was also performed at 4° C.

[4] = system: PBMCs; assay: Targeted vs spontaneous uptake of pp65 peptides at 37° C., dextramer staining; assay type: cell-based, human; settings: PBMCs incubated at 37° C., 12 days, relative to untargeted peptide, particularly at lower peptide concentrations
Protocol: as §1

[5] = system: pp65-specific naïve T cells; assay: Induction of CMV-pp65-specific T cells from naive donor repertoire, dextramer staining; assay type: cell-based, human; settings: CD45RO-depleted PBMCs, HLA-A2+/CMV negative donors, IL-7, representative example
Protocol: as §1, with “days.” for “days. After 2 rounds of stimulation (8 days each) with autologous DC loaded with peptides, the cells were stained with dextramers specific for pp65 NLVPMVATV (SEQ ID NO:19) epitope. To test spontaneous uptake of peptides by DCs, PBMCs from HLA-A2+/CMV positive donors were incubated at 37° C. with various concentrations of untargeted or targeted pp65 peptide for 90 min.”
as §2, with “Denmark).” for “Denmark). Antibodies against human CD8, CD19 and CD56 were obtained from eBioscience (San Diego, Calif., USA).”, “USA). […]” for “USA).”

With “NWYLPWLGTNDWGCFTWPPWQAGILARNLVPMVATVQGQNLKYQEFFWDANDIYRIFAEL [NW-60-mer, 48-mer CMV pp65 peptide fused to NW peptide]” the “T-cell proliferation ([3H]-thymidine)” value [1] was “stimulated T-cell proliferation”, the “dextramer-positive CD8 T cells specific for NLVPMVATV” value [2] was 10.50% and the “binding of 6IAF-conjugated pp65 fusion peptides to DCs” value [3] was “bound to iDCs”. For the same sequence, the “expansion of CD8 T cells after uptake at 37° C.” value [4] was “significant expansion of CD8 T cells” and the “pp65-specific naïve T cells (dextramer staining)” value [5] was 0.22%.
